Source: patent US10455835B2, “Fungicidal compositions for controlling leaf spots in sugar beets” (Dow AgroSciences LLC, priority 2012, dated 2019)

System: Cercospora beticola (CERCBE)
Experiment: Activity vs. sugar beet leaf spot on inoculated sugar beet plants (disease severity)
Type: in vivo
Conditions: sugar beet 'HH88', factorial analysis across all rates and replicates
Procedure: Evaluation of Protectant Activity of Fungicide Mixtures vs. sugar beet leaf spot caused by Cercospora beticola (CERCBE). Sugar beet plants (variety ‘HH88’) were grown in soil-less Metro mix and trimmed regularly to maintain an uniform plant size prior to test. To prepare inoculum, dried diseased beet leaves were placed in a moist chamber overnight to promote sporulation. Spores were rinsed off leaves with distilled water, filtered through cheesecloth to remove plant debris, then adjusted to 4×10^4 spores/ml. Tween 20 was added at 3 drops per 100 ml. Sugar beet seedlings were inoculated 3 days prior to or 4 to 5 days after fungicide treatments. Inoculated plants were kept in a dew chamber at 22° C. for 48 hr then incubated in a greenhouse set at 24° C. under a clear plastic hood until disease symptoms were fully expressed. Disease severity was assessed on both treated and untreated plants.
The following fungicides were used for an efficacy example:
The efficacy of various formulations is shown in the table below wherein the values are percent disease severity. Results of the factorial analysis across all rates and replicates.

With `CC1COC(Cn2cncn2)(c2ccc(Oc3ccc(Cl)cc3)cc2Cl)O1` (centres unmarked) [difenconazole, 1H-1,2,4-Triazole, 1-((2-(2-chloro-4-(4-chlorophenoxy)phenyl)-4-methyl-1,3-dioxolan-2-yl)methyl)-] as the compound, how does the percent disease severity (Ex. 1, 3DC (inoculated 3 days prior to fungicide treatment), untreated disease severity 23.0) read?
Its percent disease severity is 1.2 b percent.

And the percent disease severity (Ex. 2, 5DP (inoculated 5 days after fungicide treatment), untreated disease severity 31.0)?
The percent disease severity was 2.2 b percent.

What about the percent disease severity (Ex. 3, 3DC (inoculated 3 days prior to fungicide treatment), untreated disease severity 48.0) of the same compound?
The percent disease severity was 0.6 c percent.

What about the percent disease severity (Ex. 4, 4DP (inoculated 4 days after fungicide treatment), untreated disease severity 35.0) of the same compound?
Its percent disease severity is 2.5 b percent.

What about the percent disease severity (Ex. 5, 3DC (inoculated 3 days prior to fungicide treatment), untreated disease severity 26.0) of the same compound?
Its percent disease severity is 0.4 c percent.
